In US20050074879A1, “Antisense oligonucleotide modulation of STAT3 expression” (priority 2000, published 2005):
Oligonucleotides are written 5' to 3', each unit as a sugar letter and its base; * is a phosphorothioate linkage, no mark a phosphodiester; rarer units and linkages stand in square brackets, end groups in braces. Plain capitals give the bases only. e = 2'-O-(2-methoxyethyl) (MOE); [5mC] = 5-methylcytosine; d = 2'-deoxy (DNA)

Tests used:
Mouse STAT3 protein = experiment: STAT3 protein levels in BCL1 cells by Western blot, dose response; type: cell-based; settings: compared with mismatch control
Experimental: ISIS 17152 (SEQ ID. NO. 99) was chosen for further study. The effect of this oligonucleotide on protein levels was determined by Western blot. ISIS 23177 (SEQ ID NO. 106), a 3 base mismatch, was used as a control. BCL1 cells were grown, treated and processed as described in Example 2.
Nuclear extracts from primary B cells and B lymphoma cell lines were prepared as described in Karras, J. G., et al. (J. Exp. Med., 1997, 185, 1035-1042).
Western blotting was performed as described in Karras, J. G. et al. (J. Immunol., 1996, 157, 2299). STAT1 and STAT3 antibodies were obtained from UBI (Lake Placid, N.Y.).

BCL1 cells = experiment: BCL1 cell proliferation, [3H]-thymidine incorporation; type: cell-based, mouse; settings: summary of Table 6
Experimental: The effect of ISIS 17152 (SEQ ID NO. 99) on BCL1 proliferation was determined. BCL1 cells contain constitutively active STAT3 which is thought to be responsible for their proliferation. BCL1 cells were grown, treated and processed as described in Example 2.
1×10^5 BCL1 cells were incubated in 96-well plates in […] complete RPMI following electroporation. Cultures were pulsed with […] of [^3H]-thymidine for the last 8 hours of culture and cells were harvested and analyzed for thymidine incorporation as described in Francis, D. A. et al. (Int. Immunol., 1995, 7, 151-161) 48 hours after electroporation.

[1] = test system: IgM secretion by BCL1 cells; experiment: BCL1 IgM secretion, ELISA; type: cell-based, mouse; settings: compared with mismatch control
Experimental: The effect of ISIS 17152 (SEQ ID. NO. 99) on IgM secretion levels was determined. STAT3 has been implicated in regulation of IgM expression (Faris, M., et al., Immunology, 1997, 90, 350-357). BCL1 cells were grown, treated and processed as described in Example 2.
1×10^6 BCL1 cells were incubated in 12-well plates in 2 mL complete RPMI following electroporation. Supernatant was replaced at 24 hour post electroporation with fresh medium. 48 hours later, supernatants were harvested, centrifuged to remove cells, and assayed for IgM content using the OPT-EIA™ ELISA kit (Pharmingen, San Diego, Calif.) and capture and detecting antibodies for mouse IgM (Southern Biotechnology, Birmingham, Ala.).

RANTES mRNA = experiment: Induction of chemokines in BCL1 cells, RNase protection assay: RANTES; type: cell-based, mouse; settings: statement covers all three chemokines
Experimental: The effect of ISIS 17152 (SEQ ID. NO. 99) on chemokine levels was determined. BCL1 cells were grown, treated and processed as described in Example 2. Chemokine gene expression was induced in BCL1 cells by addition of […] of a CpG-containing oligonucleotide to the media 16 hours following antisense oligonucleotide electroporation. CpG-containing oligonucleotides are immune-stimulatory (Krieg, A. M., et al., Nature, 1995, 374, 546-549). The levels of chemokines were measured eight hours later using RNase protection assay as described in Example 2 with a mouse chemokine template set, Mck-5 (Pharmingen, San Diego, Calif.).

Mouse B16 melanoma cells = experiment: Cell number of B16 melanoma cells after antisense treatment; type: cell-based; settings: 24 hours after transfection
Experimental: Mouse B16 melanoma cells were grown in RPMI 1640 (Life Technologies, Inc., Grand Island, N.Y.) medium supplemented with 10% fetal bovine serum, 2 mM L-glutamine, 1 mM sodium pyruvate, 1% MEM nonessential amino acids and 100 IU/ml penicillin/streptomycin.
(§1) Cells were treated with ISIS 17152, targeted to mouse STAT3, or the 3-base mismatch control, ISIS 28084 ([…]; SEQ ID NO: 151). Cells were transfected with oligonucleotide using LipofectAMINE PLUSJ reagent (GibcoBRL). Oligonucleotide was pre-complexed with LipofectAMINE PLUSJ by adding the oligonucleotide to 100 μl serum-free RPMI 1640 medium, then 6 μl LipofectAMINE PLUSJ reagent was added, the sample was mixed well and incubated for 15 minutes at room temperature. An additional 4 μl of LipofectAMINE PLUSJ reagent was diluted to 100 μl in serum-free RPMI. This diluted LipofectAMINE PLUSJ was mixed with the pre-complexed oligonucleotide/LipofectAMINE PLUSJ mixture and incubated for 15 minutes at room temperature. 800 μl of serum-free RPMI 1640 was added, and the resulting oligonucleotide-LipofectAMINE PLUSJ-medium mixture (approximately 1 ml) was added to cells in a 6-well plate. After 3 hours incubation, 1 ml of RPMI 1640 supplemened with 20% fetal bovine serum was added. Oligonucleotide concentrations were 200 nM or 300 nM.
24 hours after transfection, cells were counted to determine the effect of antisense treatment on cell death. Cells were harvested at 24 hours post transfection for western blot analysis and at 48 hours post-transfection for Annexin-V staining for apoptosis.

B16 cells = experiment: Apoptosis in B16 cells, Annexin V-PE staining and flow cytometry; type: cell-based, mouse
Experimental: as §1
24 hours after transfection, cells were counted to determine the effect of antisense treatment on cell death. […]
Apoptosis in B16 cells was measured by staining with Annexin V-PE (Clontech) and flow cytometry analysis 48 hours after antisense treatment. […]

STAT3 protein = STAT3 protein in B16 cells, Western blot; type: cell-based, mouse; settings: 200 nM or 300 nM, 24 hours after treatment
Experimental: as §1
24 hours after transfection, cells were counted to determine the effect of antisense treatment on cell death. Cells were harvested at 24 hours post transfection for western blot analysis and at 48 hours post-transfection for Annexin-V staining for apoptosis. […]

## AAAAAGTGCCCAGATTGCCC (antisense eA*eA*eA*eA*eA*dG*dT*dG*dC*dC*dC*dA*dG*dA*dT*eT*eG*e[5mC]*e[5mC]*e[5mC]) [ISIS 17152]
Mouse STAT3 protein
  reducing STAT3 protein levels (in words): significantly better at reducing STAT3 protein levels than the mismatch control
BCL1 cells
  reduction of BCL1 cell proliferation: approximately 50%
[1]
  reducing IgM secretion (in words): significantly better at reducing IgM secretion than the mismatch control
RANTES mRNA
  expression of the chemokines, RANTES, MIP-1 and MIP-1 (in words): able to induce the expression of the chemokines
Mouse B16 melanoma cells; 200 nM, Expt 1
  cell number: 3.8 × 10^5
Mouse B16 melanoma cells; 200 nM, Expt 2
  cell number: 6.8 × 10^5
Mouse B16 melanoma cells; 200 nM, Expt 3
  cell number: 1.8 × 10^5
Mouse B16 melanoma cells; 300 nM, Expt 2
  cell number: 3.5 × 10^5
Mouse B16 melanoma cells; 300 nM, Expt 3
  cell number: 2.2 × 10^5
B16 cells; 48 hours after antisense treatment
  cells staining positive for Annexin-V: 29.84%
B16 cells; versus mock and control oligonucleotide
  increase in apoptotic cells: nearly threefold increase
STAT3 protein
  STAT3 protein production (in words): significantly reduced
